Assay results taken from patent US7476673B2, “Disubstituted chalcone oximes as selective agonists of RARγ retinoid receptors” (Allergan, Inc., priority 2003, dated 2009).

Tests used:
[1] = target: T1, RARγ (Homo sapiens, UniProt P13631); assay: ligand binding assay, RARγ; details: results expressed in Ki numbers, read-out: RAR Binding γ
T1 sequence (P13631 1-454): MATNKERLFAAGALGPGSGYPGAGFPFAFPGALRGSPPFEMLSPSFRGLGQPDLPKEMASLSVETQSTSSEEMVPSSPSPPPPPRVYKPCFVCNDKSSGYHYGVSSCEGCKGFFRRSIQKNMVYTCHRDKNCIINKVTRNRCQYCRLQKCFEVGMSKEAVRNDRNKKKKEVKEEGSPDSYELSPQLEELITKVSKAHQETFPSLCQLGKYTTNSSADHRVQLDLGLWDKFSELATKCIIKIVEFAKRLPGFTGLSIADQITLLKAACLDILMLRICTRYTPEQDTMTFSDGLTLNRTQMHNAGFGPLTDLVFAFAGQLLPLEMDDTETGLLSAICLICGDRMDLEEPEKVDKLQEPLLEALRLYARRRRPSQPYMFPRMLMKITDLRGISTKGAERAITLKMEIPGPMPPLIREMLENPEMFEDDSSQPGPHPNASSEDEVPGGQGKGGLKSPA
Description: (§1) A holoreceptor transactivation assay and a ligand binding assay which measure the antagonist/agonist like activity of the compounds of the invention, or their ability to bind to the several retinoid receptor subtypes, respectively, are described in published PCT Application No. WO WO93/11755 (particularly on pages 30-33 and 37-41) published on Jun. 24, 1993, the specification of which is also incorporated herein by reference. A detailed experimental procedure for holoreceptor transactivations has been described by Heyman et al. Cell 68, 397-406, (1992); Allegretto et al. J. Biol. Chem. 268, 26625-26633, and Mangelsdorf et al. The Retinoids: Biology, Chemistry and Medicine, pp 319-349, Raven Press Ltd., New York, which are expressly incorporated herein by reference. The results obtained in this assay are expressed in EC50 numbers, as they are also in the chimeric receptor transactivation assay. The results of the ligand binding assay are expressed in Ki numbers. (See Cheng et al. Biochemical Pharmacology Vol. 22 pp 3099-3108, expressly incorporated herein by reference.)
(§2) Table 1 discloses the activity of certain exemplary compounds of the invention in the above-described chimeric RAR receptor transactivation and binding assays.

[2] = target: T2, RARγ (Homo sapiens, UniProt P13631); assay: chimeric receptor transactivation assay, RARγ; assay type: cell-based; details: for EC50: chimeric receptor transactivation, read-out: RAR EC50 γ; for % Efficiency γ: percentage of maximum compared to standard TTNPB
T2 construct: % Efficiency γ; other: percentage of maximum compared to standard TTNPB
T2 sequence (P13631 185-454 limits assumed): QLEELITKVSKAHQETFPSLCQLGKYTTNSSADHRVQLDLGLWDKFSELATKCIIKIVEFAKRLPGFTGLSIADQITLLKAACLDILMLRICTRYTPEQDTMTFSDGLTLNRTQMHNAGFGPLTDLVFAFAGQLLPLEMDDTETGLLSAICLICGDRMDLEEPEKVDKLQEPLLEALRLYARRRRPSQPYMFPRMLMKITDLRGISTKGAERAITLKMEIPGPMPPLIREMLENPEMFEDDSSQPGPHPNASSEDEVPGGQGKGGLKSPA
Method: (§3) The compounds of the invention were tested in certain assays for activity as agonists of RAR and RXR retinoid receptors. Specifically, one such assay is a chimeric receptor transactivation assay which tests for agonist-like activity in the RARα, RARβ and RARγ receptor subtypes, and which is based on work published by Feigner P. L. and Holm M. (1989) Focus, 112 is described in detail in U.S. Pat. No. 5,455,265. The specification of U.S. Pat. No. 5,455,265 is hereby expressly incorporated by reference.
as §1
(§4) Efficacy in a transactivation assay is expressed as a percentage of the maximum potency attained by the compound compared to a standard which, in this case, is the compound 4-[(1E)-2-(5,6,7,8-tetrahydro-5,5,8,8-tetramethyl-2-naphthalenyl)-1-propenyl]-benzoic acid. (TTNPB) This standard compound is described in PCT Publication WO 2002077169 A2.
as §2

[3] = target: T3, RARα (Homo sapiens, UniProt P10276); assay: chimeric receptor transactivation assay, RARα; assay type: cell-based; details: for EC50: chimeric receptor transactivation, read-out: RAR EC50 α; for % Efficiency α: percentage of maximum compared to standard TTNPB
T3 sequence (P10276 183-417 limits assumed): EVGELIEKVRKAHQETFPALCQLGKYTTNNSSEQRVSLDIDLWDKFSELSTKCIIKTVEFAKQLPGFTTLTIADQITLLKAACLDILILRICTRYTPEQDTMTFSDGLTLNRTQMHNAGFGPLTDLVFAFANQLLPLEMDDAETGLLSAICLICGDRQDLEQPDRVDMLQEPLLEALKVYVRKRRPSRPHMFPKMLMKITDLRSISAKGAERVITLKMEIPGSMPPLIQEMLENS
Method: as §3, §1, §4, §2

[4] = target: T4, RARβ (Homo sapiens, UniProt P10826); assay: chimeric receptor transactivation assay, RARβ; assay type: cell-based; details: for EC50: chimeric receptor transactivation, read-out: RAR EC50 β; for % Efficiency β: percentage of maximum compared to standard TTNPB
T4 sequence (P10826 183-455 limits assumed): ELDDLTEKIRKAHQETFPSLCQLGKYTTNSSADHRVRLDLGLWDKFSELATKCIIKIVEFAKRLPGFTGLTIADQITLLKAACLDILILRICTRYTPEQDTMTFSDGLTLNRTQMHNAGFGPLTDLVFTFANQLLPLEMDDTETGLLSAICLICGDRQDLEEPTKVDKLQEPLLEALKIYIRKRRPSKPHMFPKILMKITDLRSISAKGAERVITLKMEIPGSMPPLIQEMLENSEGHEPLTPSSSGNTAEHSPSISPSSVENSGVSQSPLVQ
Method: as §3, §1, §4, §2

[5] = target: T5, RARβ (Homo sapiens, UniProt P10826); assay: ligand binding assay, RARβ; details: results expressed in Ki numbers, read-out: RAR Binding β
T5 sequence (P10826 1-455): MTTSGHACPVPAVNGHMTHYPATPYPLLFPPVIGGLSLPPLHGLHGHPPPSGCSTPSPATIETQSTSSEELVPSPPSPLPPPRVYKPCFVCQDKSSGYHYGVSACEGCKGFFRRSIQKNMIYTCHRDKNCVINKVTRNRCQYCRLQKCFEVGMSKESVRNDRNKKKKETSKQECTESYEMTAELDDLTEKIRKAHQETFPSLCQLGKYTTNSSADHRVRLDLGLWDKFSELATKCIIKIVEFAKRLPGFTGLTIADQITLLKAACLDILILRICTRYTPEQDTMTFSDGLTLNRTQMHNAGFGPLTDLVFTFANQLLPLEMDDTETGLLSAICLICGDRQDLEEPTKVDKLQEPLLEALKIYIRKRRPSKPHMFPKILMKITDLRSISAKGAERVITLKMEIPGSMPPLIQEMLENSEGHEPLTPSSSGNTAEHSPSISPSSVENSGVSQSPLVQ
Description: as §1, §2

[6] = target: T6, RARα (Homo sapiens, UniProt P10276); assay: ligand binding assay, RARα; details: results expressed in Ki numbers, read-out: RAR Binding α
T6 sequence (P10276 1-462): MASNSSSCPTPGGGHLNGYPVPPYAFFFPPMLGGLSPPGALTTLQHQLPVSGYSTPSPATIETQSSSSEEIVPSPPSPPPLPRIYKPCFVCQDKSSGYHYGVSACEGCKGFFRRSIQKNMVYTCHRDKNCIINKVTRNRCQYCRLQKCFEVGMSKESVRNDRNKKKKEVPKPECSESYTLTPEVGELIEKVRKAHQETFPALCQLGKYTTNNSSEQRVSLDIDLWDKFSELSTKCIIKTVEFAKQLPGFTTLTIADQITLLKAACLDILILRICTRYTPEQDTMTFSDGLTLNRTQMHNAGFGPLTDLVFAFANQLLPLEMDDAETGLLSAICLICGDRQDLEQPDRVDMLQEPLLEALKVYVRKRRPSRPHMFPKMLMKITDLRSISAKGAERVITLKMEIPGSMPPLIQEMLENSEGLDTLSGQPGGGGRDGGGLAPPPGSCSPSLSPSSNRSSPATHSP
Description: as §1, §2

| SMILES | Ki [1] | EC50 [2] | % Efficiency γ [2] | EC50 [3] | % Efficiency α [3] | EC50 [4] | % Efficiency β [4] | Ki [5] | Ki [6] |
| --- | --- | --- | --- | --- | --- | --- | --- | --- | --- |
| CC1(C)CCCc2ccc(C(C=Cc3ccc(C(=O)O)cc3)=NO)cc21 [drawing 12] | 5 nM | 0.09 nM | 97% | 2120 nM | 51% | 65 nM | 106% | 1200 nM | 6000 nM |
| COc1cc2c(cc1C(/C=C/c1ccc(C(=O)O)cc1)=N\O)C(C)(C)CCC2(C)C | 1500 nM | 84 nM | 107% | > 1000 nM |  | 5920 nM | 44% | 10000 nM | 10000 nM |
| CC1(C)CCC(C)(C)c2nc(C(C=Cc3ccc(C(=O)O)cc3)=NO)cnc21 [drawing 34] | 240 nM | 10 nM | 123% | 4000 nM | 41% | 105 nM | 88% |  | 27000 nM |
| CCCCCCCN1C(=O)CC(C)(C)c2cc(C(C=Cc3ccc(C(=O)O)cc3)=NO)ccc21 | 51 nM | 10 nM | 11% | > 1000 nM |  |  |  | 29000 nM | 11000 nM |
| CC1=CCC(C)(C)c2cc(C(/C=C/c3ccc(C(=O)O)cc3)=N\O)ccc21 | 36 nM | 4 nM | 95% | 515 nM | 50% | 94 nM | 104% | 3000 nM | 4000 nM |
| Cc1cc2c(cc1C(C=Cc1ccc(C(=O)O)cc1)=NO)C(C)(C)CCC2(C)C [drawing 36] | 583 nM | 23 nM | 48% | > 1000 nM |  | 3440 nM | 41% | 17000 nM | 8000 nM |
| CC1(C)CCSc2ccc(C(/C=C/c3ccc(C(=O)O)cc3F)=N/O)cc21 | 15 nM | 10 nM | 90% | > 1000 nM |  | 173 nM | 55% | 8000 nM | 10000 nM |
| CC1(C)CCCc2ccc(C(/C=C/c3ccc(C(=O)O)cc3F)=N/O)cc21 | 46 nM | 44 nM | 97% | 118 nM | 39% | 62 nM | 133% | 1200 nM | 5200 nM |
| CC1(C)CCCc2ccc(C(/C=C/c3ccc(C(=O)O)cc3F)=N\O)cc21 | 132 nM | 14 nM | 123% | 345 nM | 120% | 4060 nM | 95% | 7000 nM | 2100 nM |
| CC1(C)CCSc2ccc(C(/C=C/c3ccc(C(=O)O)cc3F)=N\O)cc21 | 19 nM | 21 nM | 120% | > 1000 nM |  | 503 nM | 45% | 10000 nM | 10000 nM |
| CC1(C)CCC(C)(C)c2nc(C(C=Cc3ccc(C(=O)O)cc3)=NO)cnc21 [drawing 35] | 461 nM | 143 nM | 151% | 128 nM | 54% | 77 nM | 110% |  | 25000 nM |
